Patent US20240116985A1, “STAPLED PEPTIDES AND METHODS THEREOF” (priority 2020, published 2024)

Biological target: T1, full-length beta-Catenin (Uniprot ID P35222) (Homo sapiens, UniProt P35222)
T1 construct: 10 nM full-length beta-Catenin (Uniprot ID P35222)
T1 sequence (P35222 1-781): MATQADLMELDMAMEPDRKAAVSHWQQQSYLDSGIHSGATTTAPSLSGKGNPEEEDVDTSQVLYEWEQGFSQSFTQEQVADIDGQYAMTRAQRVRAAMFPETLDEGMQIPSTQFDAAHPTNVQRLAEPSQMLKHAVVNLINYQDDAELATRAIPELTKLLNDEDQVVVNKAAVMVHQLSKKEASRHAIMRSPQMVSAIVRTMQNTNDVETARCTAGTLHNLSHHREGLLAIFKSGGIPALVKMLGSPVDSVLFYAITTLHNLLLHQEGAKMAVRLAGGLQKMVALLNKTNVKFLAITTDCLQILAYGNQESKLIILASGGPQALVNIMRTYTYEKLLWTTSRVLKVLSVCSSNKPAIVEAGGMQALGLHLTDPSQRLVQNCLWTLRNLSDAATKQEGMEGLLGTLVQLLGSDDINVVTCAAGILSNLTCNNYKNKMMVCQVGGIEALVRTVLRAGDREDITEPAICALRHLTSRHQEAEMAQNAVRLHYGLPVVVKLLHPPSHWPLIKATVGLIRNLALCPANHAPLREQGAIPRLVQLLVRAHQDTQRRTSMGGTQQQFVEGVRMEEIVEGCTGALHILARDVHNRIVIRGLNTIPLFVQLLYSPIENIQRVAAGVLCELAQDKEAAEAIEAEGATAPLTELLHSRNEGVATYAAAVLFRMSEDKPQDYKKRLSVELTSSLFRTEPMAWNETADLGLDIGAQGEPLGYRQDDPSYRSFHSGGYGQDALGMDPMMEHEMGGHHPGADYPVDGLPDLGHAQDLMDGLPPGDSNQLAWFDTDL
Test: Fluorescence polarization IC50 (beta-catenin / 5FAM-TCF4 10-53 competition)
Assay type: binding
Settings: fluorescence polarization; read-out: beta-Catenin FP IC50

Row | IC50 | Structure (SMILES)
1 | 54 nM | CC(=O)N1CCC[C@]12CCCCCCC1(CCCCCCCCOC(=O)N3CC[C@@](C(=O)N[C@@H](Cc4ccsc4)C(=O)N[C@@H](Cc4csc5ccccc45)C(=O)N[C@@H](CCC(N)=O)C(N)=O)(C3)NC(=O)[C@H](CC(N)=O)NC(=O)[C@H](Cc3ccccc3)NC(=O)[C@H](C)NC(=O)[C@H](C)NC(=O)[C@H](CC(=O)O)NC(=O)[C@H](CC(=O)O)NC1=O)NC(=O)[C@H](CC(C)(C)C)NC(=O)[C@H](CC(=O)O)NC2=O (stereo partly drawn) [I-1987, Ac-PL3-Asp-Npg-B5-Asp-Asp-Ala-Ala-Phe-Asn-PyrS2-3Thi-BztA-Gln-NH2]
2 | 312 nM | CC(=O)N1CCC[C@H]1C(=O)N[C@@H](CC(=O)O)C(=O)N[C@@H](CC(C)(C)C)C(=O)N[C@]1(C)CCCCC=CCCCOC(=O)N2CC[C@@](C(=O)N[C@@H](Cc3ccsc3)C(=O)N[C@@H](Cc3csc4ccccc34)C(=O)N[C@@H](CCC(N)=O)C(N)=O)(C2)NC(=O)[C@H](CC(C)C)NC(=O)[C@H](Cc2ccccc2)NC(=O)[C@H](C)NC(=O)[C@H](C)NC(=O)[C@H](CC(=O)O)NC(=O)[C@H](CC(=O)O)NC1=O [I-1988, Ac-Pro-Asp-Npg-R6-Asp-Asp-Ala-Ala-Phe-Leu-PyrS2-3Thi-BztA-Gln-NH2]
3 | 186 nM | CC(=O)N1CCC[C@H]1C(=O)N[C@@H](CC(=O)O)C(=O)N[C@@H](CC(C)(C)C)C(=O)N[C@]1(C)CCC=CCCCOC(=O)N2CC[C@@](C(=O)N[C@@H](Cc3ccsc3)C(=O)N[C@@H](Cc3csc4ccccc34)C(=O)N[C@@H](CCC(N)=O)C(N)=O)(C2)NC(=O)[C@H](CC(C)C)NC(=O)[C@H](Cc2ccccc2)NC(=O)[C@H](C)NC(=O)[C@H](C)NC(=O)[C@H](CC(=O)O)NC(=O)[C@H](CC(=O)O)NC1=O [I-1989, Ac-Pro-Asp-Npg-R4-Asp-Asp-Ala-Ala-Phe-Leu-PyrS2-3Thi-BztA-Gln-NH2]
4 | 585 nM | CC(=O)N1CCC[C@H]1C(=O)N[C@@H](CC(=O)O)C(=O)N[C@@H](CC(C)(C)C)C(=O)N[C@]1(C)CC=CCCCOC(=O)N2CC[C@@](C(=O)N[C@@H](Cc3ccsc3)C(=O)N[C@@H](Cc3csc4ccccc34)C(=O)N[C@@H](CCC(N)=O)C(N)=O)(C2)NC(=O)[C@H](CC(C)C)NC(=O)[C@H](Cc2ccccc2)NC(=O)[C@H](C)NC(=O)[C@H](C)NC(=O)[C@H](CC(=O)O)NC(=O)[C@H](CC(=O)O)NC1=O [I-1990, Ac-Pro-Asp-Npg-R3-Asp-Asp-Ala-Ala-Phe-Leu-PyrS2-3Thi-BztA-Gln-NH2]
5 | 397 nM | CC(=O)N1CCC[C@H]1C(=O)N[C@@H](CC(=O)O)C(=O)N[C@@H](CC(C)(C)C)C(=O)N[C@]1(C)CCCCCCCCCOC(=O)N2CC[C@@](C(=O)N[C@@H](Cc3ccsc3)C(=O)N[C@@H](Cc3csc4ccccc34)C(=O)N[C@@H](CCC(N)=O)C(N)=O)(C2)NC(=O)[C@H](CC(C)C)NC(=O)[C@H](Cc2ccccc2)NC(=O)[C@H](C)NC(=O)[C@H](C)NC(=O)[C@H](CC(=O)O)NC(=O)[C@H](CC(=O)O)NC1=O [I-1991, Ac-Pro-Asp-Npg-R6-Asp-Asp-Ala-Ala-Phe-Leu-PyrS2-3Thi-BztA-Gln-NH2]
6 | 536 nM | CC(=O)N1CCC[C@H]1C(=O)N[C@@H](CC(=O)O)C(=O)N[C@@H](CC(C)(C)C)C(=O)N[C@]1(C)CCCCCCCOC(=O)N2CC[C@@](C(=O)N[C@@H](Cc3ccsc3)C(=O)N[C@@H](Cc3csc4ccccc34)C(=O)N[C@@H](CCC(N)=O)C(N)=O)(C2)NC(=O)[C@H](CC(C)C)NC(=O)[C@H](Cc2ccccc2)NC(=O)[C@H](C)NC(=O)[C@H](C)NC(=O)[C@H](CC(=O)O)NC(=O)[C@H](CC(=O)O)NC1=O [I-1992, Ac-Pro-Asp-Npg-R4-Asp-Asp-Ala-Ala-Phe-Leu-PyrS2-3Thi-BztA-Gln-NH2]
7 | 728 nM | CC(=O)N1CCC[C@H]1C(=O)N[C@@H](CC(=O)O)C(=O)N[C@@H](CC(C)(C)C)C(=O)N[C@]1(C)CCCCCCOC(=O)N2CC[C@@](C(=O)N[C@@H](Cc3ccsc3)C(=O)N[C@@H](Cc3csc4ccccc34)C(=O)N[C@@H](CCC(N)=O)C(N)=O)(C2)NC(=O)[C@H](CC(C)C)NC(=O)[C@H](Cc2ccccc2)NC(=O)[C@H](C)NC(=O)[C@H](C)NC(=O)[C@H](CC(=O)O)NC(=O)[C@H](CC(=O)O)NC1=O [I-1993, Ac-Pro-Asp-Npg-R3-Asp-Asp-Ala-Ala-Phe-Leu-PyrS2-3Thi-BztA-Gln-NH2]
8 | 1020 nM | CC(=O)N1CCC[C@]12CC=CCCCC1(CCCC=CCCCOC(=O)N3CC[C@@](C(=O)N[C@@H](Cc4ccsc4)C(=O)N[C@@H](Cc4csc5ccccc45)C(=O)N[C@@H](CCC(N)=O)C(N)=O)(C3)NC(=O)[C@H](CC(N)=O)NC(=O)[C@H](Cc3ccccc3)NC(=O)[C@H](C)NC(=O)[C@H](C)NC(=O)[C@H]([C@@H](C)O)NC(=O)[C@H](CC(N)=O)NC1=O)NC(=O)[C@H](C)NC(=O)[C@H](CC(=O)O)NC2=O (stereo partly drawn) [I-2003, Ac-PL3-Asp-Ala-B5-Asn-Thr-Ala-Ala-Phe-Asn-PyrS2-3Thi-BztA-Gln-NH2]

More lines, now with the values behind:

Row | Structure (SMILES) | IC50
9 | CC(=O)N1CCC[C@]12CC=CCCCC1(CCCC=CCCCOC(=O)N3CC[C@@](C(=O)N[C@@H](Cc4cccc(C(F)(F)F)c4)C(=O)N[C@@H](Cc4csc5ccccc45)C(=O)N[C@@H](CCC(N)=O)C(N)=O)(C3)NC(=O)[C@H](CC(N)=O)NC(=O)[C@H](Cc3ccccc3)NC(=O)[C@H](C)NC(=O)[C@H](C)NC(=O)[C@H]([C@@H](C)O)NC(=O)[C@H](CC(N)=O)NC1=O)NC(=O)[C@H](CC(C)(C)C)NC(=O)[C@H](CC(=O)O)NC2=O (stereo partly drawn) [I-1997, Ac-PL3-Asp-Npg-B5-Asn-Thr-Ala-Ala-Phe-Asn-PyrS2-3F3MeF-BztA-Gln-NH2] | 3390 nM
10 | CC(=O)N1CCC[C@]12CC=CCCCC1(CCCC=CCCCOC(=O)N3CC[C@@](C(=O)N[C@@H](Cc4ccccc4Cl)C(=O)N[C@@H](Cc4csc5ccccc45)C(=O)N[C@@H](CCC(N)=O)C(N)=O)(C3)NC(=O)[C@H](CC(N)=O)NC(=O)[C@H](Cc3ccccc3)NC(=O)[C@H](C)NC(=O)[C@H](C)NC(=O)[C@H]([C@@H](C)O)NC(=O)[C@H](CC(N)=O)NC1=O)NC(=O)[C@H](CC(C)(C)C)NC(=O)[C@H](CC(=O)O)NC2=O (stereo partly drawn) [I-1998, Ac-PL3-Asp-Npg-B5-Asn-Thr-Ala-Ala-Phe-Asn-PyrS2-2C1F-BztA-Gln-NH2] | 732 nM
11 | CC(=O)N1CCC[C@]12CC=CCCCC1(CCCC=CCCCOC(=O)N3CC[C@@](C(=O)N[C@@H](Cc4ccccc4Cl)C(=O)N[C@@H](Cc4csc5ccccc45)C(=O)N[C@@H](CCC(N)=O)C(N)=O)(C3)NC(=O)[C@H](CC(N)=O)NC(=O)[C@H](Cc3ccccc3)NC(=O)[C@H](C)NC(=O)[C@H](C)NC(=O)[C@H]([C@@H](C)O)NC(=O)[C@H](CC(N)=O)NC1=O)NC(=O)[C@H](CC(C)(C)C)NC(=O)[C@H](CC(=O)O)NC2=O (stereo partly drawn) [I-1999, Ac-PL3-Asp-Npg-B5-Asn-Thr-Ala-Ala-Phe-Asn-PyrS2-2C1F-BztA-Gln-NH2] | 4940 nM
12 | CC(=O)N1CCC[C@]12CC=CCCCC1(CCCC=CCCCOC(=O)N3CC[C@@](C(=O)N[C@@H](Cc4cccc(Cl)c4)C(=O)N[C@@H](Cc4csc5ccccc45)C(=O)N[C@@H](CCC(N)=O)C(N)=O)(C3)NC(=O)[C@H](CC(N)=O)NC(=O)[C@H](Cc3ccccc3)NC(=O)[C@H](C)NC(=O)[C@H](C)NC(=O)[C@H]([C@@H](C)O)NC(=O)[C@H](CC(N)=O)NC1=O)NC(=O)[C@H](CC(C)(C)C)NC(=O)[C@H](CC(=O)O)NC2=O (stereo partly drawn) [I-2000, Ac-PL3-Asp-Npg-B5-Asn-Thr-Ala-Ala-Phe-Asn-PyrS2-3C1F-BztA-Gln-NH2] | 6560 nM
13 | CC(=O)N1CCC[C@]12CC=CCCCC1(CCCC=CCCCOC(=O)N3CC[C@@](C(=O)N[C@@H](Cc4cccc(Cl)c4)C(=O)N[C@@H](Cc4csc5ccccc45)C(=O)N[C@@H](CCC(N)=O)C(N)=O)(C3)NC(=O)[C@H](CC(N)=O)NC(=O)[C@H](Cc3ccccc3)NC(=O)[C@H](C)NC(=O)[C@H](C)NC(=O)[C@H]([C@@H](C)O)NC(=O)[C@H](CC(N)=O)NC1=O)NC(=O)[C@H](CC(C)(C)C)NC(=O)[C@H](CC(=O)O)NC2=O (stereo partly drawn) [I-2001, Ac-PL3-Asp-Npg-B5-Asn-Thr-Ala-Ala-Phe-Asn-PyrS2-3C1F-BztA-Gln-NH2] | 4450 nM
14 | CC(=O)N1CCC[C@]12CC=CCCCC1(CCCC=CCCCOC(=O)N3CC[C@@](C(=O)N[C@@H](Cc4ccsc4)C(=O)N[C@@H](Cc4csc5ccccc45)C(=O)N[C@@H](CCC(N)=O)C(N)=O)(C3)NC(=O)[C@H](CC(N)=O)NC(=O)[C@H](Cc3ccccc3)NC(=O)[C@H](C)NC(=O)[C@H](C)NC(=O)[C@H]([C@@H](C)O)NC(=O)[C@H](CC(N)=O)NC1=O)NC(=O)[C@H](C)NC(=O)[C@H](CC(=O)O)NC2=O (stereo partly drawn) [I-2002, Ac-PL3-Asp-Ala-B5-Asn-Thr-Ala-Ala-Phe-Asn-PyrS2-3Thi-BztA-Gln-NH2] | 612 nM
15 | CC(=O)N1CCC[C@]12CC=CCCCC1(CCCC=CCCCOC(=O)N3CC[C@@](C(=O)N[C@@H](Cc4ccsc4)C(=O)N[C@@H](Cc4csc5ccccc45)C(=O)N[C@@H](CCC(N)=O)C(N)=O)(C3)NC(=O)[C@H](CC(N)=O)NC(=O)[C@H](Cc3ccccc3)NC(=O)[C@H](C)NC(=O)[C@H](CCCCNC(C)C)NC(=O)[C@H]([C@@H](C)O)NC(=O)[C@H](CC(N)=O)NC1=O)NC(=O)[C@H](CC(C)(C)C)NC(=O)[C@H](CC(=O)O)NC2=O (stereo partly drawn) [I-2004, Ac-PL3-Asp-Npg-B5-Asn-Thr-iPrLys-Ala-Phe-Asn-PyrS2-3Thi-BztA-Gln-NH2] | 227 nM
